Results reported in US9302967B2, “Substituted cathechols as inhibitors of IL-4 and IL-5 for the treatment of bronchial asthma” (Council of Scientific & Industrial Research, priority 2011, dated 2016).
Like-named read-outs stand apart in the source and are kept apart here.

Columns and labels:
[1] = system: IL-4; experiment: IL-4 levels in lung homogenates by ELISA, OVA mouse model; assay type: in vivo, BALB/c mice; settings: for IL-4 levels in lung: 10 mg/kg vs OVA/OVA/VEH
Method: (§1) Mice were sensitized with 0.2 ml PBS containing 50 μg ovalbumin (OVA) (Sigma, USA) and 4 mg aluminum hydroxide in saline intraperitonially (i.p.) on days 0, 7 and 14 as shown in FIG. 1. Sham group mice were sensitized with only alum dissolved in PBS. From day 18 to 27, mice were exposed to aerosol of OVA (3%) inhalation 25 minutes daily in a Plexiglas chamber (20×20×10 cm^3). The aerosol was generated by a nebulizer (OMRON CX model) with an airflow rate of 9 L/minute. Sham group mice were challenged with PBS alone.
(§2) Compound 1 of formula I was dissolved in 50% ethanol. So 50% ethanol was used as a vehicle. Group I was alum sensitized, saline challenged and treated with vehicle (SHAM/SAL/VEH), group II was OVA sensitized, OVA challenged and treated with 50% ethanol as vehicle (OVA/OVA/VEH), group III, IV, V, VI were OVA sensitized, OVA challenged and treated with 0.05, 0.1, 5 and 10 mg/kg compound 1 of formula I. Drug was given in the volume of 10 μl orally twice per day. Confirmatory experiments were done with two concentrations of compound 1 of formula I (5 and 10 mg/kg twice a day), and these findings were compared with parallel group of mice which were OVA-sensitized, -OVA challenged and treated orally once a day with 0.75 mg/kg Dexamethasone (OVA/OVA/DEX).
OVA-specific IgE levels in sera were measured by enzyme linked immunosorbent assay (ELISA) as described previously with little modification (Inflam. Res. 2003, 52, 101-106). Absorbance values at 450 nm were converted to arbitrary values by multiplying with 100. IL-4 levels in lung homogenates were measured by ELISA method as per manufacturer's instructions (BD Pharmingen, USA). Lung homogenates were prepared by homogenizing the lung tissue (approximately 100 mg) with 1 ml PBS followed by centrifugation at 10000 g for 30 min at 4° C. Results were expressed in pg/50 μg protein. Protein estimation was done by BCA method.

[2] = In vivo acute oral LD50
[3] = system: IL-5; experiment: PHA-stimulated human PBMC, IL-5 in supernatant by Cytometric Bead Array; assay type: cell-based; settings: PHA 10 μg/ml, read-out: IC50 inhibitory activity, stimulation-induced IL-5
Method: Normal human peripheral blood mononuclear cells (PBMC) were stimulated with phytohemagglutinin (PHA) 10 μg/ml in the presence and absence of varying concentrations of compounds of formula I and II. Culture supernatants were harvested and IIL-4 and IL-5 cytokines were quantitated by Cytometric Bead Array (CBA™) kit (Becton Dickinson, USA) following manufacturers instructions using a Flow Cytometer (BD LSR, Becton Dickinson) and CBA™ analysis software (Becton Dickinson).

[4] = 14 d acute oral toxicity: observations, body weight, organ weight, necropsy; assay type: in vivo, mice
Method: 14 d acute oral toxicity of compound 1 of formula I was performed. Three doses were selected: 47, 23, 12 and 0 mg/kg bw (Vehicle control) of compound 1 of formula I was administered by single oral gavage using blunt ended steel canula.

[5] = system: OVA specific IgE; experiment: OVA-specific IgE levels in sera by ELISA, OVA mouse model; assay type: in vivo, BALB/c mice; settings: 10 mg/kg vs OVA/OVA/VEH
Method: as §1
Compound 1 of formula I was dissolved in 50% ethanol. So 50% ethanol was used as a vehicle. Group I was alum sensitized, saline challenged and treated with vehicle (SHAM/SAL/VEH), group II was OVA sensitized, OVA challenged and treated with 50% ethanol as vehicle (OVA/OVA/VEH), group III, IV, V, VI were OVA sensitized, OVA challenged and treated with 0.05, 0.1, 5 and 10 mg/kg compound 1 of formula I. Drug was given in the volume of 10 μl orally twice per day. […]
OVA-specific IgE levels in sera were measured by enzyme linked immunosorbent assay (ELISA) as described previously with little modification (Inflam. Res. 2003, 52, 101-106). Absorbance values at 450 nm were converted to arbitrary values by multiplying with 100. IL-4 levels in lung homogenates were measured by ELISA method as per manufacturer's instructions (BD Pharmingen, USA). […]

[6] = molecular target: T1, COX-2 (Homo sapiens, UniProt P35354); settings: cited from earlier work
T1 sequence (P35354 18-604): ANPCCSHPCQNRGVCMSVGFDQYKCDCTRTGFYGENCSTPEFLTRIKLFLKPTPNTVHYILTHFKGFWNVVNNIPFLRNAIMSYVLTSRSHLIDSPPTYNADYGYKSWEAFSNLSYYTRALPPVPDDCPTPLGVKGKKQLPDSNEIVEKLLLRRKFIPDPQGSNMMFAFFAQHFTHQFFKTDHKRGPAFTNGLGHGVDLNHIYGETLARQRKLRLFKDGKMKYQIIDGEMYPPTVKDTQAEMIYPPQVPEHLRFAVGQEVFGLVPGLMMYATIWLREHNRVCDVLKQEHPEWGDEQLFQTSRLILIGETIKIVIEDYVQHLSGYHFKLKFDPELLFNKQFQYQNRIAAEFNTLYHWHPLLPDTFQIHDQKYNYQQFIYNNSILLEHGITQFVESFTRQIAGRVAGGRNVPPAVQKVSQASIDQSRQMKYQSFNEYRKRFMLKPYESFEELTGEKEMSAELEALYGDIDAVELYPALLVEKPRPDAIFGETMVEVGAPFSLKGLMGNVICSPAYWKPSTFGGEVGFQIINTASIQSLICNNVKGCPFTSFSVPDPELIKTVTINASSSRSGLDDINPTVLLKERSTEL

[7] = system: OVA sensitized, OVA challenged mice; experiment: Airway hyperresponsiveness to methacholine (whole-body plethysmography), OVA mouse model of asthma; assay type: in vivo, BALB/c mice; settings: for AHR to Mch / lung function compared with dexamethasone: 10 mg/kg orally twice a day, DEX 0.75 mg/kg once a day; for MCh PC200 (AHR to methacholine): 0.05, 0.1, 5 and 10 mg/kg orally twice per day
Method: BALB/c mice (6-8 wks old, 18-22 grams) were obtained from IICB Kolkata and VPCI, Delhi. Ethical clearance has been obtained from Institutional Ethical Committee. Mice were acclimatized for at least one week under the laboratory conditions (25±2° C., 60% humidity) before starting the experiments. After one week, baseline Penh (enhanced pause) was measured in Buxco unrestrained single chamber plethysmography (WBP, Buxco, Troy, N.Y.).
as §1, §2
Airway responsiveness was measured by barometric plethysmography using whole-body plethysmography (WBP; Buxco, Troy, N.Y.) 12 hours after last saline or ovalbumin challenge. At the time of measurement the animals were awake and breathing spontaneously. Enhanced pause (Penh) to methacholine as measured using barometric plethysmography is a valid indicator of bronchoconstriction in mice and can be used to measure AHR (Am J Respir Crit Care Med 1997, 156, 766-775). Baseline Penh was taken initially, and then PBS followed by increasing concentrations (4-48 mg/ml) of methacholine was nebulized through an inlet of the main chamber for 3 min. Readings were taken and averaged for 5 minutes from the starting time of nebulisation. Airway responsiveness to MCh was evaluated by the concentration of MCh required to increase the Penh to twice the baseline value (MCh PC200).

[8] = system: 3T3 cells; experiment: In vitro cytotoxicity by NRU method, predicted acute oral LD50; assay type: cell-based; settings: derived from in vitro cytotoxicity
Method: Earlier, LD50 of ICB 14 C6 was derived from in vitro cytotoxicity assay by NRUmethod in 3T3 cells. […] For 90d sub-chronic toxicity study the highest dose selected was one-fourth of the limit dose. Four different doses of ICB14 C6 (47, 23, 12 and 0 [vehicle] mg/kg body weight) were prepared in ground nut oil daily for 5 days a week for 90d.

[9] = listed as compound of formula I

C=CCc1ccc(O)c(O)c1 [Compound 1, 4-allyl-benzene-1,2-diol]
reduction of lung IL-4 compared to DEX treated mice ([1]; 10 mg/kg): approx. 65% | IL-4 levels in lung [1]: a decrease in the IL-4 levels | IL-4 levels in lung [1, 9]: a significant reduction in the IL-4 levels | in vivo acute oral LD50 [2]: 268 mg/kg bw | IC50 ([3]; Homo sapiens): 4.5 µM | IC50 [3]: 5 µM | acute oral (level) established from body weight, organ weight, necropsy, immunotoxicity, hematology, clinical chemistry, cage side observation ([4]; mice): 23 mg/kg | necropsy findings in vital organs ([4]; mouse, in vivo): no gross or microscopic lesion | clinical signs on day of administration ([4]; mouse, in vivo, po): transient symptoms of restlessness and rapid rate of respiration that persisted for 30 minutes post administration | feed and water consumption ([4]; mouse, in vivo, po): comparable to vehicle control group | morbidity and/or mortality ([4]; single oral 47, 23 and 12 mg/kg bw): did not result in any morbidity and/or mortality | OVA specific IgE levels in sera [5]: significantly reduced the OVA specific IgE levels in sera | OVA specific IgE levels in sera [5, 9]: significant reduction | COX-2 inhibition [6]: potent COX-1/COX-2 inhibitor | AHR to Mch / lung function compared with dexamethasone [7]: able to improve lung function almost similar to the level of dexamethasone | AHR to Mch / lung function compared with dexamethasone [7, 9]: significantly reduced the AHR to Mch as effective as DEX | MCh PC200 (AHR to methacholine) [7]: increased in a dose dependent manner | MCh PC200 (AHR to methacholine) [7, 9]: effective at higher concentrations | predicted acute oral LD50 [8]: 168 mg/kg
